Assay results taken from ChEMBL document CHEMBL1157539, “Thousands of chemical starting points for antimalarial lead identification” (Nature, 2010).

The compounds below were run on Plasmodium falciparum (assay: GSK_TCMDC: Inhibition of Plasmodium falciparum 3D7 in whole erythrocytes, using parasite LDH activity as an index of growth.). Details: Plasmodium falciparum, 3D7.
Format: functional, organism-based

Compound	XC50
CC(=O)c1ccc(NC(=O)Nc2ccc(N(C)c3ccnc(Nc4cccc(CS(C)(=O)=O)c4)n3)cc2)cc1	122 nM
CC(C)N1CCC(N(Cc2ccc(-c3ccc(C(F)(F)F)cc3)cc2)C(=O)Cn2c(SCc3cccc(F)c3F)cc(=O)c3c2CCC3)CC1	1160 nM
Nc1nc(N)c2c3c(ccc2n1)CCC3	928 nM
CCN(CC)CCNc1cc(C)nc(NC(=N)Nc2ccc(Cl)cc2)n1	130 nM
CCOC(=O)c1ccc(NC(=O)Nc2cccc(-c3cccc(-c4nc5cc(F)ccc5[nH]4)c3)c2)cc1	94.7 nM
COc1ccc(C(O)CNC(C)CCc2ccc(F)cc2)cc1C(F)(F)F (configuration not stated)	747 nM
COc1ccc(NC(=O)Nc2cccc(-c3ccc(-c4nc5cc(C(F)(F)F)ccc5[nH]4)cc3)c2)cc1	452 nM
O=C(Cc1ccc(NC(=O)c2ccc(O)c(-c3ccc(Cl)c(Cl)c3)c2)cc1)NCCN1CCOCC1	806 nM
CCN1CCN(Cc2ccc3nc(-c4cc(C)n(Cc5cc(Cl)ccc5OCc5ccccc5)n4)[nH]c3c2)CC1	770 nM
CCCOc1cccc(C(=O)N[C@@H](Cc2ccccc2)[C@H](O)CNCc2cccc(OC)c2)c1	741 nM
COc1ccc(-c2onc(C(F)(F)F)c2-c2ccc(Br)cc2)c(O)c1	237 nM
CCOC(=O)c1nc(-c2cc(Cl)nc(Cl)c2)[nH]c1NC(=S)NCc1ccc(NS(C)(=O)=O)cc1	892 nM
O=C(Nc1cccc(CN2CCN(Cc3ccc(O)cc3)CC2)c1)c1ccc(-c2ccccc2)cc1	245 nM
O=C(NC1CCC(N2CCC(Cc3ccc(F)cc3)CC2)CC1)c1cc2ccccc2[nH]1 (configuration not stated)	868 nM
COc1ccccc1C(C)NCC(=O)Nc1ccccc1Sc1ccccc1 (configuration not stated)	1100 nM
CCCCCN1CCC(NS(=O)(=O)c2ccc(C(=O)Nc3cccc(C(F)(F)F)c3)cc2)C1 (configuration not stated)	995 nM
O=C(NCCCCN1CCC(c2ccc3ccccc3c2O)CC1)c1ccc(NC(=O)c2ccc(Cl)cc2)cc1	1010 nM
CN1CCC(O)(c2ccc(Br)cc2)C(C(O)c2ccc(Br)cc2)C1 (configuration not stated)	731 nM
NCc1ccc(CNCc2cccc(-c3cccc(-c4nc5ccccc5[nH]4)c3)c2)cc1	489 nM
CN(C)CCCN1CCN(C(=O)c2cc3cc(-c4ccccc4)ccc3n2S(=O)(=O)c2ccccc2)CC1	119 nM
O=S(=O)(Nc1cccc(CCN2CCC(N3CCCCC3)CC2)c1)c1ccccc1C(F)(F)F	1150 nM
C=C(NC(=O)c1cc(C)cc(C)c1)C(=O)OC	174 nM
CN(C)c1ccc(C2c3[nH]cnc3CCN2C(=O)Nc2cccc([N+](=O)[O-])c2)cc1 (configuration not stated)	966 nM
c1cc(CN2CCN(CCN3CCOCC3)CC2)cc(-c2csc(-c3nc4ccccc4[nH]3)c2)c1	452 nM
Fc1ccc2[nH]c(-c3cccc(-c4ccc(CNCc5cnn(-c6ccccc6)n5)cc4)c3)nc2c1	917 nM

Compound	XC50
Oc1cc2ccccc2cc1CNC1CCCCC1	586 nM
CCC(O)c1ccc(Br)cc1NC(=O)c1cccc(Cl)c1 (configuration not stated)	1020 nM
CC(O)C1CCCCN1C(=O)c1ccc(-c2cccc(-c3nc4cc(F)ccc4[nH]3)c2)cc1 (configuration not stated)	540 nM
COc1c(C2CCN(CCCCNC(=O)c3ccc(-c4ccc(Cl)cc4)c(OCC(N)=O)c3)CC2)ccc2c1CCCC2	1010 nM
Cc1cccc2[nH]cc(C3CCN(CC4CCC(NC(=O)/C=C/c5ccc(Cl)c(Cl)c5)CC4)CC3)c12 (configuration not stated)	163 nM
Oc1ccc(Nc2nc(NCC3CCCO3)c3ccccc3n2)cc1 (configuration not stated)	806 nM
Cc1nc2ccccc2c(O)c1-c1ccc(Cl)cc1	999 nM
CCn1cnc2c(N3CCCCS3(=O)=O)cc(C(=O)N[C@@H](Cc3ccccc3)[C@H](O)CNC3CCOCC3)cc21	712 nM
Cc1ccccc1NC(=O)C1CSCN1C(=O)OCc1ccccc1 (configuration not stated)	983 nM
c1ccc2c(Nc3ccc(Oc4ccc(Nc5c6ccccc6nc6ccccc56)cc4)cc3)c3ccccc3nc2c1	518 nM
CCCC1N=C(N)N=C(N)N1c1ccc(CC)cc1 (configuration not stated)	66.9 nM
CCc1c(CCNCCCCCCNCCc2ccc(OC)c(OC)c2C)ccc(OC)c1OC	1570 nM
CCC(C)CNC(=O)CN1CN(c2ccccc2)C2(CCN(C(=O)c3ccc(Br)cc3)CC2)C1=O (configuration not stated)	1070 nM
CCn1ccc2c(N3CCCC3=O)cc(C(=O)N[C@@H](Cc3ccccc3)[C@H](O)CNC3CCCCC3)cc21	119 nM
CNCCNCc1ccc(-c2ccc(-c3nc4cc(F)ccc4[nH]3)s2)cc1	772 nM
CN1CCN(CCCN(Cc2ccc(-c3cccc(CNC4CCCC4)c3)cc2)C(=O)Nc2ccccc2)CC1	1120 nM
Nc1nc(N)c2c3c(cnc2n1)CCCC3	770 nM
CC1=C(C(=O)OC(C)C)C(c2ccccc2Cl)C2=C(CC(c3ccccc3)CC2=O)N1 (configuration not stated)	850 nM
Cc1noc(C)c1-c1cccc(CNCc2ccc(-c3ccc(-c4nc5ccccc5[nH]4)s3)cc2)c1	556 nM
COc1cc(F)c2nccc([C@@H](O)CN3CCC(NCc4cc5c(cc4F)OCCO5)CC3)c2c1	679 nM
Cc1cccc2nc(-c3cccc(-c4cccc(NC(=O)CN5CCN(C)CC5)c4)c3)[nH]c12	533 nM
N#Cc1ccc2c(c1)CCN(CCC1CCC(NC(=O)/C=C/c3c[nH]c4c(Br)cccc34)CC1)CC2 (configuration not stated)	379 nM
CC(C)c1cc(Oc2c(I)cc(CCNC(=N)N)cc2I)ccc1O	788 nM
O=C(Nc1ccccc1-c1ccccc1)C1CCCN1C(=O)Nc1ccc(Cl)cc1 (configuration not stated)	793 nM
O=C(Nc1ccc([N+](=O)[O-])cc1)Nc1cc(OCC(F)(F)F)cc(OCC(F)(F)F)c1	469 nM

Compound	XC50
CN=C(N)c1ccc(NC(=O)C=Cc2ccc(C(=O)Nc3ccc(C(N)=NC)cc3)cc2)cc1	31.4 nM
Cc1cc(N(C)C2CCN(C)CC2)nc(Nc2ccc(Br)cc2)n1	480 nM
CCc1c[nH]c2c(N3CCCC3=O)cc(C(=O)N[C@@H](Cc3ccccc3)[C@H](O)CNC3CCCCC3)cc12	102 nM
FC(F)(F)c1ccc2[nH]c(-c3cccc(-c4cccc(CNCCc5ccncc5)c4)c3)nc2c1	141 nM
CCCCCCN(CCCCCC)CCCCNc1c2ccc(Cl)cc2nc2ccc(OC)cc12	535 nM
COc1ccc2nccc(NCC3(O)CCN(CCc4ccc5c(c4)OCCO5)CC3)c2n1	597 nM
CCCOc1ccc(CNCCCCCCNCc2ccc(OCCC)c3ccccc23)c2ccccc12	410 nM
Cc1[nH]c(C)c(-c2ccc(-c3ccc(OC(F)(F)F)cc3)cc2)c(=O)c1Br	38.6 nM
Cc1cnc(C(=O)Nc2cccc(-c3ccc(-c4nc5cc(C(F)(F)F)ccc5[nH]4)s3)c2)cn1	704 nM
CCN(CC)CCOc1c(Cl)cc(Cl)cc1CNCCCNc1cc(=O)c2ccccc2[nH]1	871 nM
CC(C)COc1ccc(Cl)cc1Cc1ccc(-c2nc3cc(CCN4CCCC4)ccc3[nH]2)o1	730 nM
Fc1ccc2[nH]c(-c3ccc(-c4ccc(CN5CCCCC5)cc4)s3)nc2c1	602 nM
Cc1cc(NC(=O)Nc2ccc3ccn(C)c3c2)c2ccccc2n1	214 nM
Cc1cc(C)c(C(=O)Nc2ccc3nc(C)cc(N)c3c2)c(C)c1	1100 nM
Oc1c(CN2CCCC(C(F)(F)F)C2)cc(Cl)c2ccccc12 (configuration not stated)	1570 nM
CN(C)/C(=N/C(=N)Nc1ccc(Cl)cc1)NCCCCCCN/C(=N\C(=N)Nc1ccc(Cl)cc1)N(C)C	533 nM
COc1cc(OC)c2c(C)cc(NCCCn3ccnc3)nc2c1	804 nM
COc1ccc2nc(C)cc(NCc3ccc4ccccc4c3)c2c1	468 nM
CCc1cn(CCCOC)c2ccc(C(=O)N[C@@H](Cc3ccccc3)[C@H](O)CNCc3cccc(C(F)(F)F)c3)cc12	186 nM
COc1cc(CNCCCNc2cc(=O)c3ccccc3[nH]2)c2c(c1)C(C)CN2C(=O)OC(C)(C)C (configuration not stated)	734 nM
CC1(C)[C@H]2CC[C@@H](CNc3nc(NCC(=O)Nc4ccc5ccccc5c4)nc(N4CCC(N5CCCC5)CC4)n3)[C@@H]1C2	1190 nM
CC(=O)c1sc(NC(=O)Nc2ccc(C)cc2C)nc1C	906 nM
Cc1ccc(NC(=O)c2ccc(CN3CCCN(CCC(C)C)CC3)cc2)cc1C	913 nM
CC1(C)NC(N)=NC(=N)N1OCCSCc1cc(Cl)sc1Cl	3.2 nM
Nc1nc(N)c2c(ccc3c2ccn3Cc2cc3c(cc2Cl)OCO3)n1	3.2 nM

Compound	XC50
C=C[C@]1(C)C[C@@H](OC(=O)CSC2CN3CCC2C3)[C@@]2(C)C3C(=O)CC[C@@]3(CC[C@H]2C)[C@@H](C)[C@@H]1O (some centres not stated)	689 nM
C[C@H](Cc1ccc(Oc2ccc(C[C@@H](C)NC[C@H](O)c3cccc(Cl)c3)cc2)cc1)NC[C@H](O)c1cccc(Cl)c1	560 nM
Cn1cc(-c2ccccc2C(=O)O)c(=O)c2cc(Cl)ccc21	917 nM
Cc1cc(-c2ccc(CN3Cc4ccccc4C3)cc2)ccc1S(=O)(=O)NCCN1CCCC1	966 nM
CCOc1ccc2nc3cc([N+](=O)[O-])ccc3c(N)c2c1	139 nM
CC(C)Sc1nc2c(c(=O)n1CCc1ccccc1)C1(CCCC1)Cc1ccccc1-2	347 nM
CC1CN(Cc2cccc(F)c2)CCN1c1ccc(NC(=O)c2ccc(F)cc2)cc1 (configuration not stated)	580 nM
c1cncc(CNc2ncc(-c3ccsc3)c(-c3nccs3)n2)c1	1380 nM
COc1ccccc1Oc1c(N(C)S(=O)(=O)c2ccc(C(C)C)cc2)nc(C(F)(F)F)nc1N(C)S(=O)(=O)c1ccc(C(C)C)cc1	846 nM
COc1ccc(NC(=O)[C@H](Cc2ccccc2)Nc2cc(C)nc(NCCOc3ccccc3)n2)cc1	1070 nM
CCN(c1ccc(O)c(CN2CCCCC2)c1)c1ccc([N+](=O)[O-])cn1	886 nM
Nc1ncc(-c2ccc(F)cc2)c2ccc(-c3cccc(F)c3)cc12	227 nM
CC(C)(C)OC(=O)NCc1ccc(Nc2nnc(-c3cccc(C(=O)NCCC(c4ccccc4)c4ccccc4)c3)o2)cc1	581 nM
C=CCc1cc(SC)ccc1Oc1ccc(N)cc1	742 nM
Cc1cc(N[C@@H](CC(C)C)C(=O)NCCOc2ccccc2)nc(NCCc2ccc(F)cc2)n1	1290 nM
CN1CCC(NCc2ccc(-c3cccc(-c4nc5ccccc5[nH]4)c3)cc2)CC1	126 nM
C#CCN(Cc1cc2c(=O)[nH]c(N)nc2cc1C)c1ccc(C(=O)N[C@@H](CCC(=O)O)C(=O)O)cc1	625 nM
CC(C)COc1ccc(Cl)cc1Cc1ccc(-c2nc3c(F)cccc3[nH]2)o1	806 nM
CCNc1cc(C(=O)N[C@@H](Cc2ccccc2)[C@H](O)CNC23CCC(CC2)C3)cc(N2CCCCS2(=O)=O)c1	34.1 nM
Cc1ccc(-c2nc(NC(=O)Nc3ccc(C(F)(F)F)cc3)sc2C)cc1Cl	659 nM
CCc1cccc(NC(=O)/C=C/c2ccc3c(c2)CN(C)CC3)c1	767 nM
COc1cc2nc(SCC(C)C)n(CCCn3ccnc3)c(=N)c2cc1OC	610 nM
